Reference: patent US12497666B2, “Nucleic acid biomarker and use thereof” (Daiichi Sankyo Co., Ltd., priority 2013, dated 2025)
Where two headings read alike, the source gives them in different places.

Tests used:
[1] = tested on: Stage IIIb/IV NSCLC
Protocol: (§1) In both portions of the study, subjects received 150 mg of erlotinib orally once daily. […] Tumors were to be assessed every 6 weeks (±3 days) up to the first 24 weeks of the study, then every 12 weeks (+7 days) independent of treatment cycle.
Subjects were also administered 150 mg/day erlotinib during the phase 2 trial.

[2] = tested on: Stage IIIb/IV NSCLC; conditions: for On-Study Death / Primary Cause of On-Study Death: Adverse Event / Primary Cause of On-Study Death: Disease Progression / Primary Reason for Discontinuing Study Treatment: Death / Primary Reason for Discontinuing Study Treatment: Progressive Disease (Radiographic Progression): Enrolled/Randomized set; for disease control rate / objective response (CR or PR): HRG high
Protocol: as §1
All efficacy analyses were performed on the full analysis set, which includes all subjects in the randomized analysis set who received at least one dose of randomized study medication. The primary efficacy endpoint was PFS. PFS is defined as the time from the date of randomization to the earlier of the dates of the first objective documentation of radiographic disease progression or death due to any cause. A subject who was alive with no Objective documentation of (radiographic) disease progression by the data cut-off date was to be censored at the date of the last evaluable tumor assessment. The key secondary efficacy endpoint, overall survival, was defined as the time from the date of randomization to death due to any cause and was analyzed in the same manner as the primary efficacy endpoint PFS.
Kaplan-Meier curves were generated for PFS and used to calculate medians and 95% CIs for each treatment group. […] Cox's proportional hazards model.
The stratification factors included histology (Adenocarcinoma vs Non-Adenocarcinoma) and best response to prior therapy (CR/PR/SD vs PD).
Unless otherwise indicated, log-rank p-values and HRs for PFS and OS were based on the primary analysis adjusted for the stratification factors at randomization as described above.

[3] = 18 mg/kg patritumab + erlotinib
[4] = Full Analysis Set, 9 mg/kg patritumab + erlotinib
[5] = Full Analysis Set, 18 mg/kg patritumab + erlotinib
[6] = Full Analysis Set, Kaplan-Meier, 9 mg/kg patritumab + erlotinib
[7] = Full Analysis Set, Kaplan-Meier, 18 mg/kg patritumab + erlotinib
[8] = HRG high (dCt<3.9), 9 mg/kg patritumab + erlotinib
[9] = HRG high (dCt<3.9), 18 mg/kg patritumab + erlotinib
[10] = HRG high (dCt<3.9), patritumab doses combined + erlotinib
[11] = HRG high and EGFR wild type, 9 mg/kg patritumab + erlotinib
[12] = HRG high and EGFR wild type, 18 mg/kg patritumab + erlotinib
[13] = HRG high and EGFR wild type, patritumab doses combined + erlotinib
[14] = HRG low, 9 mg/kg patritumab + erlotinib
[15] = HRG low, 18 mg/kg patritumab + erlotinib
[16] = HRG low, patritumab doses combined + erlotinib

Substance: patritumab + erlotinib: combination of 150 mg erlotinib daily and anti-HER3 antibody patritumab IV every 3 weeks (18 mg/kg, or 18 mg/kg loading with 9 mg/kg maintenance)
- response ([1]; Phase 1b, 7 subjects): No response was recorded
- grade of reported AEs ([1]; in vivo): Most reported AEs were grade 1 or 2
- patritumab-related AE: decreased appetite ([1]; in vivo): 2 subjects
- serious AEs ([1]; in vivo): Three subjects had four serious AEs
- HR (pooled dose vs placebo) for PFS in the HRG high group ([2]; Cut-off for delta Ct 2.7 (first quartile)): 0.180
- HR (pooled dose vs placebo) for PFS in the HRG high group ([2]; Cut-off for delta Ct 3.0): 0.177
- HR (pooled dose vs placebo) for PFS in the HRG high group ([2]; Cut-off for delta Ct 3.5): 0.283
- HR (pooled dose vs placebo) for PFS in the HRG high group ([2]; Cut-off for delta Ct 3.9 (median)): 0.324
- HR (pooled dose vs placebo) for PFS in the HRG high group ([2]; Cut-off for delta Ct 4.5): 0.490
- HR (pooled dose vs placebo) for PFS in the HRG high group ([2]; Cut-off for delta Ct 5.0 (third quartile)): 0.561
- On-Study Death ([2]; 9 mg/kg patritumab + erlotinib): 9 (12.5%) subjects (%)
- Primary Cause of On-Study Death: Adverse Event ([2]; 9 mg/kg patritumab + erlotinib): 4 (5.6%) subjects (%)
- Primary Cause of On-Study Death: Disease Progression ([2]; 9 mg/kg patritumab + erlotinib): 4 (5.6%) subjects (%)
- Primary Reason for Discontinuing Study Treatment: Death ([2]; 9 mg/kg patritumab + erlotinib): 2 (2.8%) subjects (%)
- Primary Reason for Discontinuing Study Treatment: Progressive Disease (Radiographic Progression) ([2]; 9 mg/kg patritumab + erlotinib): 45 (62.5%) subjects (%)
- On-Study Death [2, 3]: 20 (27.8%) subjects (%)
- Primary Cause of On-Study Death: Adverse Event [2, 3]: 11 (15.3%) subjects (%)
- Primary Cause of On-Study Death: Disease Progression [2, 3]: 8 (11.1%) subjects (%)
- Primary Reason for Discontinuing Study Treatment: Death [2, 3]: 11 (15.3%) subjects (%)
- Primary Reason for Discontinuing Study Treatment: Progressive Disease (Radiographic Progression) [2, 3]: 42 (58.3%) subjects (%)
- Subjects (%) with events, OS [2, 4]: 46 (64.8%) subjects (%)
- Subjects (%) with events, PFS [2, 4]: 52 (73.2%) subjects (%)
- Subjects (%) with events, OS [2, 5]: 54 (77.1%) subjects (%)
- Subjects (%) with events, PFS [2, 5]: 58 (82.9%) subjects (%)
- Overall Survival, time to event, Median [2, 6]: 6.3 months
- Progression-Free Survival, time to event, Median [2, 6]: 2.5 months
- Overall Survival, time to event, Median [2, 7]: 5.3 months
- Progression-Free Survival, time to event, Median [2, 7]: 1.4 months
- number of subjects with the response being CP/PR ([2]; Full Analysis Set, high-dose patritumab + erlotinib): 5 (7.1%) subjects (%)
- number of subjects with the response being CP/PR ([2]; Full Analysis Set, low-dose patritumab + erlotinib): 9 (12.9%) subjects (%)
- OS Rate at 1 Year (%) [2, 8]: 49.2%
- OS Rate at 6 Months (%) [2, 8]: 68.8%
- OS Rate at 9 Months (%) [2, 8]: 56.3%
- PFS Rate at 8 Weeks (%) [2, 8]: 67.7%
- PFS Rate at 14 Weeks (%) [2, 8]: 33.9%
- PFS Rate at 26 Weeks (%) [2, 8]: 20.3%
- Progression-Free Survival, time to event, Median [2, 8]: 3.0 months
- Subjects (%) with events, OS [2, 8]: 9 (56.3%) subjects (%)
- Subjects (%) with events, PFS [2, 8]: 12 (75.0%) subjects (%)
- OS Rate at 1 Year (%) [2, 9]: 22.2%
- OS Rate at 6 Months (%) [2, 9]: 50.7%
- OS Rate at 9 Months (%) [2, 9]: 44.3%
- PFS Rate at 8 Weeks (%) [2, 9]: 56.3%
- PFS Rate at 14 Weeks (%) [2, 9]: 50.0%
- PFS Rate at 26 Weeks (%) [2, 9]: 15.6%
- Progression-Free Survival, time to event, Median [2, 9]: 3.4 months
- Subjects (%) with events, OS [2, 9]: 12 (70.6%) subjects (%)
- Subjects (%) with events, PFS [2, 9]: 13 (76.5%) subjects (%)
- OS Rate at 1 Year (%) [2, 10]: 35.8%
- OS Rate at 6 Months (%) [2, 10]: 59.6%
- OS Rate at 9 Months (%) [2, 10]: 50.2%
- PFS Rate at 8 Weeks (%) [2, 10]: 62.1%
- PFS Rate at 14 Weeks (%) [2, 10]: 42.5%
- PFS Rate at 26 Weeks (%) [2, 10]: 18.4%
- Progression-Free Survival, time to event, Median [2, 10]: 3.0 months
- Subjects (%) with events, OS [2, 10]: 21 (63.6%) subjects (%)
- Subjects (%) with events, PFS [2, 10]: 25 (75.8%) subjects (%)
- Overall Survival, time to event, Median ([2]; HRG high (dCt<3.9), preliminary, 9 mg/kg patritumab + erlotinib): 10.6 months
- Overall Survival, time to event, Median ([2]; HRG high (dCt<3.9), preliminary, 18 mg/kg patritumab + erlotinib): 6.1 months
- Overall Survival, time to event, Median ([2]; HRG high (dCt<3.9), preliminary, patritumab doses combined + erlotinib): 9.7 months
- Progression-Free Survival, time to event, Median [2, 11]: 2.8 months
- Subjects (%) with events, PFS [2, 11]: 6 ( 85.7%) subjects (%)
- Progression-Free Survival, time to event, Median [2, 12]: 2.8 months
- Subjects (%) with events, PFS [2, 12]: 5 (100.0%) subjects (%)
- Progression-Free Survival, time to event, Median [2, 13]: 2.8 months
- Subjects (%) with events, PFS [2, 13]: 11 (91.7%) subjects (%)
- disease control rate ([2]; 9 mg/kg patritumab plus erlotinib): 62.5%
- disease control rate ([2]; 18 mg/kg patritumab plus erlotinib): 52.9%
- objective response (CR or PR) ([2]; high-dose patritumab + erlotinib): No subject
- objective response (CR or PR) ([2]; low-dose patritumab + erlotinib): 4 (25.0%) subjects (%)
- Overall Survival, time to event, Median [2, 14]: 6.3 months
- Progression-Free Survival, time to event, Median [2, 14]: 2.1 months
- Subjects (%) with events, OS [2, 14]: 10 ( 66.7%) subjects (%)
- Subjects (%) with events, PFS [2, 14]: 12 ( 80.0%) subjects (%)
- Overall Survival, time to event, Median [2, 15]: 9.6 months
- Progression-Free Survival, time to event, Median [2, 15]: 1.4 months
- Subjects (%) with events, OS [2, 15]: 12 ( 63.2%) subjects (%)
- Subjects (%) with events, PFS [2, 15]: 13 ( 68.4%) subjects (%)
- Overall Survival, time to event, Median [2, 16]: 9.3 months
- Progression-Free Survival, time to event, Median [2, 16]: 1.9 months
- Subjects (%) with events, OS [2, 16]: 22 ( 64.7%) subjects (%)
- Subjects (%) with events, PFS [2, 16]: 25 ( 73.5%) subjects (%)
- improvement in PFS or OS as compared to erlotinib plus placebo ([2]; full analysis set): no significant improvement in PFS or OS
- treatment difference in PFS and OS ([2]; subjects with tumors expressing low levels of HRG (dCt>3.9)): no clear treatment difference in PFS and OS
